Measurements taken from patent US20220280507A1, “USES OF 5-METHYLTETRAHYDROFOLATE AND ITS COMPOSITION” (Lianyungang Jinkang Hexin Pharmaceutical Co., Ltd., priority 2019, published 2022).
Where two headings read alike, the source gives them in different places.

Legend:
[1] = system: liver injury induced by carbon tetrachloride; conditions: serum day 61, n=6
Experimental: Experiment 3 Protection of 5-Methyltetrahydrofolate Calcium on Liver Injury Induced by Carbon Tetrachloride
30 SPF-grade SD rats were chosen in half female and half male and randomly divided into vehicle control group (vegetable oil), model control group (1.5 ml·kg−1, 20% carbon tetrachloride vegetable oil solvent, intraperitoneal injection every 3 days), 5-methyltetrahydrofolate calcium low-dose group (1mg·Kg−1), 5-methyltetrahydrofolate calcium medium-dose group (2 mg·Kg−1), and 5-methyltetrahydrofolate calcium high-dose group (4 mg·Kg−1) according to their body weight. 20% carbon tetrachloride vegetable oil solvent was used as the inducer, and intraperitoneal injection was performed every 3 days for a total of 60 days. After successful modeling, the administration groups were given a dosage of 5-methyltetrahydrofolate calcium as prescribed above for gavage once a day, and the model group and the normal control group were gavaged once daily with purified water for 60 consecutive days. Blood was taken on the 61st day, and the levels of ALT and AST in serum were detected.

[2] = system: TNF-α; experiment: Alcoholic fatty liver model, TNF-α in hippocampus tissue (ELISA); type: in vivo, SD rats; conditions: liquor model, n=16
Experimental: According to their weight, they were randomly divided into vehicle control group (purified water, ig), model control group (liquor, 10 ml·Kg−1), positive control group (bicyclol, 50 mg·Kg−1, ig), folic acid calcium salt high-dose group (4 mg·Kg−1), folic acid calcium salt medium-dose group (2 mg·Kg−1), folic acid calcium salt low-dose group (1 mg·Kg−1), in half female and half male, and 16 rats in each group. Purified water was used as a negative control, and bicyclol (place of origin: Beijing Xiehe Pharmaceutical Factory, specification: 25 mg/tablet, batch number: H20040467) was used as a positive control drug. Route of administration: all were administered by oral gavage. Dosage of administration: 1 mg·Kg−1, 2 mg·Kg−1, and 4 mg·Kg−1. Frequency of administration: once a day for 60 consecutive days.
Method of administration: administration started at prescribed doses on the day of modeling for 60 consecutive days and ended at the 60th day. At the same time, rats in each group were weighed every other week during administration period to monitor their body weight changes. On the 61st day, rats were dissected and serum was collected for determination of triglyceride (TG), total cholesterol (TC), malondialdehyde (MDA), superoxide dismutase (SOD) and liver histopathologic examination. The brain tissue of rats was taken out, and hippocampus tissue was separated on ice plate, prepared to homogenate with a mass fraction of 10% with purified water, then the homogenate was centrifuged to obtain supernatant. ELISA was used to detect the levels of inflammatory factors TNF-α and IL-1β in hippocampus tissue with continuous spectrum scanning microplate reader.

[3] = system: hyperlipemia rats; experiment: Hyperlipemia rats (high-fat diet), body mass, liver mass, liver index, NASH pathology; type: in vivo, SD rats; conditions: for Body mass / Liver index / Liver mass: 8 cases; for Pathological state (NASH): of 8 cases
Experimental: Experiment 5 Effect of 5-Methyltetrahydrofolate Calcium on Hyperlipemia Rats
7 weeks later, one rat in the control group and one rat in the model group were sacrificed for liver tissue section to check fatty degeneration of hepatocytes (see Table 7) to confirm whether modeling was successful. The remaining 40 modeling rats were randomly divided into low-dose (1 mg·Kg−1) group, medium-dose (2 mg·Kg−1) group, high-dose (4 mg·Kg−1) group, positive drug group, and model group.
Bicyclol (place of origin: Beijing Xiehe Pharmaceutical Factory, specification: 25 mg/tablet, batch number: H20040467) was used as a positive drug.
After successful modeling, rats were administered drugs with dosages as prescribed for 60 consecutive days, continued to be fed with high-fat diet, and dissected on the 61st day. Liver was harvested and weighed, liver index was calculated, right lobe tissue was taken to prepare frozen sections, and fat staining was performed with Sudan III for pathological scoring according to guidelines for diagnosis and treatment of NAFLD. Another liver tissue was taken to prepare homogenate, and total cholesterol (TC), triglyceride (TG), malondialdehyde (MDA), and superoxide dismutase (SOD) in serum were detected.

[4] = system: alcohol drinking rats; experiment: Disappearance and recovery of righting reflex of alcohol drinking rats; type: in vivo, SD rats; conditions: 30 min before Erguotou 9 ml·Kg−1, n=6
Experimental: Experiment 1 Effect of 5-methyltetrahydrofolate on disappearance and recovery of righting reflex of alcohol drinking rats.
30 SPF-grade SD rats were chosen in half male and half female, and divided into 5 groups with 6 rats in each group, including normal group, model group, positive drug group (Weihe Liver Protectant), 5-methyltetrahydrofolate administration group (4 mg·Kg−1 medium dose group, 8 mg·Kg−1 high dose group, respectively). After fasting for 12 h, the administration group was given Weihe Liver Protectant at 50 mg·kg−1, 5-methyltetrahydrofolate (Jinkang Hexin product) at 4 mg·Kg−1, 5-methyltetrahydrofolate (Jinkang Hexin product) at 8 mg·Kg−1, respectively. […] The intoxication in rats depends on righting reflex disappearing, that is, cover the head of the rat with gauze, and gently place the rat back down in the animal cage. […] The disappearance time and recovery time of the righting reflex in rats after drinking were recorded.

[5] = 1 mg·kg−1·d−1 gavage 60 d after CCl4 modeling
[6] = 2 mg·kg−1·d−1 gavage 60 d after CCl4 modeling
[7] = 4 mg·kg−1·d−1 gavage 60 d after CCl4 modeling

## 5-methyltetrahydrofolate calcium
[1]; [5]
  ALT: 54.64 ± 20.52 IU/L
  AST: 185.73 ± 63.46 IU/L
[1]; [6]
  ALT: 50.54 ± 20.12 IU/L
  AST: 156.97 ± 50.35 IU/L
[1]; [7]
  ALT: 40.84 ± 16.31 IU/L
  AST: 125.87 ± 43.84 IU/L
[2]; 1 mg·kg−1·d−1 ig 60 d
  TNF-α in hippocampus tissue: 250.39 ± 32.40 μg · g^−1 prot
[2]; 2 mg·kg−1·d−1 ig 60 d
  TNF-α in hippocampus tissue: 241.32 ± 29.32 μg · g^−1 prot
[2]; 4 mg·kg−1·d−1 ig 60 d
  TNF-α in hippocampus tissue: 220.43 ± 24.34 μg · g^−1 prot
[3]; high dose 4 mg·Kg−1, 60 d
  Body mass: 472.49 ± 37.8 g
  Liver index: 2.3 ± 0.5
  Liver mass: 10.9 ± 2.5 g
  Pathological state (NASH): 0 case
[3]; low dose 1 mg·Kg−1, 60 d
  Body mass: 445.89 ± 39.0 g
  Liver index: 3.4 ± 0.3
  Liver mass: 15.3 ± 3.5 g
  Pathological state (NASH): 1 case
[3]; medium dose 2 mg·Kg−1, 60 d
  Body mass: 452.93 ± 37.5 g
  Liver index: 2.6 ± 0.2
  Liver mass: 11.6 ± 2.9 g
  Pathological state (NASH): 0 case

## CN1c2c([nH]c(N)nc2=O)NCC1CNc1ccc(C(=O)N[C@@H](CCC(=O)O)C(=O)O)cc1 (stereo partly drawn) [5-methyltetrahydrofolate, N-[4-[[(2-amino-1,4,5,6,7,8-hexahydro-4-oxo-5-methyl-(6S), -(6R), and (6R,S)-pteridyl)methyl)amino)toluoyl-glutamic acid]
[4]; 4 mg·Kg−1 (medium)
  Disappearance time (righting reflex): 30.1 ± 14.4 min
  Recovery time (righting reflex): 78.5 ± 14.5 min
[4]; 8 mg·Kg−1 (high)
  Disappearance time (righting reflex): 42.3 ± 15.6 min
  Recovery time (righting reflex): 64.1 ± 14.5 min
